From patent US20180051257A1, “METHODS FOR GENERATING ALVEOLAR TYPE II CELLS” (priority 2016, published 2018) come the findings set out here.

Assay [1] concerns RB20 mESCs. Put plainly: Induction of mESCs to definitive endoderm (DE)-like cells by IDE2: RT-PCR of DE markers and phase contrast morphology. It counts as cell-based, mouse. An excerpt: (§1) To produce endoderm (DE) like cells, RB20 mESCs (embryonic stem cells) were maintained in adherent culture conditions on gelatin-coated dishes, prior to induction of differentiation. As depicted in FIG. 2, an overview of the mESCs maintenance and differentiation protocol. Differentiation of the cells was initiated via a reduction in concentration of KoSR; after three days, cells were induced by IDE2 for six days. In the next step, DE cells differentiated into alveolar type II-like (AT II-like) cells using seven different combinations of three inductive factors: FGF2 (F), hydrocortisone (H) and A549 conditioned medium (CM) during 9 days. The mESCs were cultured in media with reducing concentration of serum for 3 days, for example, 20%, 10% and 5% fetal bovine serum (FBS) in day one, two and three, respectively. Then, it was induced by 200 nM small inducing molecule IDE2 for 6 days. At the end of this first step, DE like cells were characterized for the expression of two DE markers, Sox17 and Foxa2.
The morphology of the said markers in the DE-like cells was assayed by phase contrast microscopy.

Assay [2] has as its system RB20 mESCs. Put plainly: Foxa2 protein expression in mESC-derived DE cells by flow cytometric analysis. It counts as cell-based, mouse. The conditions noted are these: mESC-derived DE cells vs mESCs.
From the text: as §1
Lack of expression of Foxa2 could be seen in mESC cells.
A general note: In flow cytometry, cells or beads pass a laser one at a time.

[3] abbreviates: 200 nM IDE2, day 6, compared to mESCs negative control group, P<0.05.

Turning to `O=C(O)CCCCCC(=O)NN=C1CCCC1` [IDE2], in the assay with RB20 mESCs [1] (setting [3]), the “expression level of Foxa2 (RT-PCR)” value is “increased expression levels” and the “expression level of Sox 17 (RT-PCR)” value is “increased expression levels”. Besides, the “cell morphology in phase contrast micrograph” value with RB20 mESCs [1] (day 6 of IDE2 induction) is “epithelial morphology characteristic of DE cells”. Moreover, the “numbers of cells that expressed DE-specific marker Foxa2 at the protein level” value in the assay with RB20 mESCs [2] is given as “increase in numbers of cells”.
